Entries after “also recorded” stand apart in the source; their conditions may differ.
How the values were obtained:
H4 neuroglioma cells = test: Extracellular Aβ after treatment of H4 cells with metalloprotease inhibitors; format: cell-based, human
Description: (§1) Human and guinea pig Aβ40 or Aβ42 was measured in plasma by sandwich ELISA as previously described (Suzuki et al., 1994, Science, 264:1336-1340) using the BAN-50/BA-27 or BAN-50/BC-05 antibody systems, respectively (Takeda; Japan). Hamster Aβ40- or Aβ42-derived from CHO cells was measured using the BNT-77/BA-27 or BNT-77/BC-05 antibody systems, respectively. Aβ concentration in samples was determined by comparison to synthetic Aβ40 or Aβ42 standards (Bachem, Switzerland). Data was obtained from triplicate wells.
In particular, the sandwich ELISA used herein was performed as follows: 96-well microtiter plates were coated overnight at 4° C. with 100 μl of a 5 μg/ml dilution of primary antibody in sodium carbonate coating buffer (SCCB; 0.1 M Na2CO3, pH 9.6). Plates were blocked overnight at 4° C. with 300 μl of BLOCKAGE Solution (PBS+1.0% BLOCKAGE (Snow Brand Milk Products, Japan), 0.05% NaN3, pH 7.4). Samples for analysis and synthetic Aβ standards (Bachem, Switzerland) were diluted in buffer EC (0.02 M NaH2PO4, 0.002 M EDTA, 0.4 M NaCl, 0.2% BSA, 0.05% CHAPS, 0.04% BLOCKAGE, 0.05% NaN3, pH 7.0) and allowed to incubate on the plates overnight at 4° C. Plates were washed twice with PBS (8 mM Na2HPO4, 1.5 mM KH2PO4, 139 mM NaCl, 2.7 mM KCl, pH 7.4) and 100 μl of secondary antibody directly coupled to HRP (EZ-LINK™ Plus Activated Peroxidase kit (contents of kit: peroxidase, 5 M sodium cyanoborohydride solution (NaBH3CN), quenching buffer (3 M ethanolamine, pH 9.0), BupH™ phosphate buffered saline, Buph™ carbonate-bicarbonate buffer), according to manufacturers directions; Pierce Chemical Co., Rockford, Ill.) was allowed to bind either 4 hrs at room temperature or overnight at 4° C. Plates were then washed twice with PBS containing 0.05% Tween 20 followed by two additional washes in PBS. Detection was performed using TMB (3,3′,5,5′-tetramethyl-benzidine) as an HRP substrate according to the manufacturer's specifications (Kirkegaard & Perry Laboratories (KPL), Gaithersburg, Md.) and the reaction stopped by the addition of 100 μl of 1N H3PO4. Plates were read at 450 nm in a SpectraMax Plus spectrophotometer (Molecular Devices; Sunnyvale, Calif.) and analyzed by SOFTmax® PRO software. Aβ40 or Aβ42 were quantitated by comparison with the values obtained for each synthetic Aβ standard from the same plate.
Cells were passaged into 6-well plates one day prior to treatment and grown to confluence. […] After treatment, the culture medium was harvested, spun at 14,000 xg, and the supernatant analyzed for Aβ40 or Aβ42 using sandwich ELISA and for secreted APP using Western blot. […] Bound antibody was detected by incubation with the appropriate HRP-linked secondary antibody (Amersham, Uppsala, Sweden) using ECL™ Western blotting reagents (Amersham) followed by exposure to X-ray film. […]

CHO cells = test: Aβ in conditioned medium of CHO cells (lack ECE activity) treated with phosphoramidon; format: cell-based, hamster; conditions: non-transfected CHO cells; high concentrations of phosphoramidon
Description: as §1
(§2) In particular, the sandwich ELISA used herein was performed as follows: 96-well microtiter plates were coated overnight at 4° C. with 100 μl of a 5 μg/ml dilution of primary antibody in sodium carbonate coating buffer (SCCB; 0.1 M Na2CO3, pH 9.6). […] Plates were read at 450 nm in a SpectraMax Plus spectrophotometer (Molecular Devices; Sunnyvale, Calif.) and analyzed by SOFTmax® PRO software. Aβ40 or Aβ42 were quantitated by comparison with the values obtained for each synthetic Aβ standard from the same plate.
(§3) Cells were passaged into 6-well plates one day prior to treatment and grown to confluence. […] After treatment, the culture medium was harvested, spun at 14,000 xg, and the supernatant analyzed for Aβ40 or Aβ42 using sandwich ELISA and for secreted APP using Western blot. […]

HUVEC cells = test: Aβ accumulation in HUVEC cells treated with phosphoramidon; format: cell-based, human; conditions: high doses of phosphoramidon
Description: as §1, §2, §3

SolECE-1 = target: T1, SolECE-1 (Homo sapiens, UniProt P42892); test: Inhibition of Aβ degradation by SolECE-1, sandwich ELISA; format: biochemical; conditions: inhibitor pre-incubated 15 min; phosphoramidon 150 μM; 24 hrs at 37° C.
T1 construct: a recombinant soluble form of ECE was generated (SolECE-1); made in house
T1 sequence (P42892 90-770 limits assumed): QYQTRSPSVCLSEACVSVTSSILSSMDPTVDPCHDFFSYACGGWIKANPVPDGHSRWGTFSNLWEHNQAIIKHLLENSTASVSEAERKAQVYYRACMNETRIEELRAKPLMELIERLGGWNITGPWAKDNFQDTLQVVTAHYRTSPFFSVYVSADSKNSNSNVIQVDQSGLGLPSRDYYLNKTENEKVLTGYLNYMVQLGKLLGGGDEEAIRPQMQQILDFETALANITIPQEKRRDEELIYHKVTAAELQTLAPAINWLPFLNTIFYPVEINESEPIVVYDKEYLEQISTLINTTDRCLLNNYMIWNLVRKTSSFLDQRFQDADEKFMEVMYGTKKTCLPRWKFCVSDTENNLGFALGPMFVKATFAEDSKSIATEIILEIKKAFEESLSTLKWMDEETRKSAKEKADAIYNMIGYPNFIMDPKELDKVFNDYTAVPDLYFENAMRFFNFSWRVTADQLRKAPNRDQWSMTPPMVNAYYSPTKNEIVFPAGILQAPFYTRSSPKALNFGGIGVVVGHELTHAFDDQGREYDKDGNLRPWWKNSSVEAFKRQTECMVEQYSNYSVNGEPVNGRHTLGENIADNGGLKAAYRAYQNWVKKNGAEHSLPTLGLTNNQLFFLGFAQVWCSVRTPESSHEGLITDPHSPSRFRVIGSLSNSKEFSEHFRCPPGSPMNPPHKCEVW
Description: SolECE-1 (approximately 0.2 μM) was pre-incubated for 15 min at room temperature with the ECE inhibitors PD069185 (synthesized according to published methods (Ahn et al., 1998, Biochem. Biophys. Res. Comm., 243:184-190) by the Mayo Clinic Organic Chemistry Core Facility, Jacksonville, Fla.) or phosphoramidon (150 μM), or an equal volume of vehicle (DMSO or PBS, respectively) prior to incubation with synthetic Aβ40 or Aβ42 (0.01 μM) in 50 mM MES (pH 6.5) containing 0.01% C12E10, 1 mM PMSF, 100 μM leupeptin, and 20 μM pepstatin. As a control, Aβ was incubated with Ni-NTA purified proteins from non-transfected CHO cells, or in reaction buffer alone. Following incubation for 24 hrs at 37° C., the reactions were stopped by the addition of 5 mM EDTA. Aβ concentration was then analyzed using a highly specific sandwich ELISA that captures Aβ via binding of antibody BAN-50 to the N-terminus, and detects only full-length Aβ peptides ending at residue 40 (using antibody BA-27) or 42 (using antibody BC-05). Thus, Aβ that has been further hydrolyzed will not be detected using this assay.

block of the SolECE-1-induced reduction of Aβ40 and Aβ42 (SolECE-1): completely blocked
Compound: CC(C)C[C@H](NP(=O)(O)O[C@@H]1O[C@@H](C)[C@H](O)[C@@H](O)[C@H]1O)C(=O)N[C@@H](Cc1c[nH]c2ccccc12)C(=O)O [phosphoramidon]
Aβ accumulation in parallel culture wells without synthetic Aβ (H4 neuroglioma cells; H4 cells, parallel to the spiking experiment): promoting Aβ accumulation | extracellular Aβ accumulation (H4 neuroglioma cells; H4 neuroglioma cells, thiorphan or captopril at concentrations greater than 1000-times the reported IC50 for the target enzymes): significant elevation | concentration of Aβ in the conditioned medium (CHO cells): did not affect; also recorded: unaffected | Aβ accumulation (HUVEC cells): virtually undetectable levels of Aβ accumulation unless treated with high doses of phosphoramidon
